Source: patent publication US20140112882A1, “Methods to treat pancreatic inflammation and associated lung injury through regulation of pancreatic interleukin-22 expression” (The Board of Trustees of the Leland Stanford Junior …, priority 2012, published 2014)

Legend:
[1] = tested on: CDE-induced acute pancreatitis; test: CDE-diet-induced acute pancreatitis model; type: in vivo, Balb/c mice
Protocol: (§1) Mice including Balb/c, C57B6/J and AhR^d were purchased from Jackson laboratory and housed under pathogen-free conditions. All animal experiments were approved by Stanford University institutional animal care and use committees. Acute pancreatitis models. For caerulein-induced pancreatitis, age and sex matched mice were fasted for 12-16 hours. Mice then received 7 hourly intra-peritoneal injections of saline (control) or 50 μg/kg caerulein in saline and followed up to 12 h or indicated times. For the choline-deficient diet supplemented with DL-ethionine (CDE-diet) model of pancreatitis, young female mice (16-20 g) were fasted then fed a choline-deficient diet (Harlan Teklad) supplemented with 0.5% DL-ethionine (Sigma-Aldrich) or normal chow (control group) (Habtezion et al. (2011), Nakamichi et al., 2005).
(§2) Mice were given PBS or recombinant IL-22 (200 ng/mouse, 1 ng/μl, Miltenyi Biotech) intra-peritoneally at 24 h after onset of CDE-diet-induced acute pancreatitis. For experiments involving anti-IL-22 mAb, mice were treated with 1 μg of either anti-IL-22 or isotype control mAb (R&D Systems) at indicated times. CH-223191 (100 μg/mouse, 0.5 μg/μl, Sigma-Aldrich) was dissolved in DMSO and Biliverdin hydrochloride (35 mg/kg, Frontier Scientific) in 20 mM NaOH adjusted to pH of 7.0. CH-223191, Biliverdin hydrochloride, or vehicle control were used to treat normal mice or mice undergoing AP at indicated times.
Mice were euthanized by CO2 inhalation. Pancreata and other tissues were rapidly removed. Pancreas and lung pieces were immediately fixed in 10% formalin and embedded in paraffin. Fixed tissues were sectioned and stained with hematoxylin and eosin (H&E; performed by Histo-Tec Laboratory). The severity of pancreatitis and lung injury were scored blindly as described previously (Habtezion et al. (2011), Nakamichi et al., 2005). Other pancreas pieces were frozen in Tissue-Tek OCT compound and sectioned for fluorescence staining Immunofluorescence staining for p-STAT3 (Cell Signaling) and DAPI (nuclei) was performed according to manufacturer's guidelines. TUNEL assay was performed according to the manufacturer's instructions (ApopTag® Red In Situ Apoptosis Detection Kit, Millipore).
Blood was collected by intracardiac puncture, and serum was isolated for subsequent lipase level determination by diagnostic laboratory at Stanford University. Lung tissues were collected and MPO assay performed according to manufacture's guidelines (Biovision).
(§3) Mouse pancreata were isolated and frozen immediately in liquid nitrogen. Total tissue and primary pancreatic acinar cells, isolated as described below, were homogenized in RIPA buffer containing protein inhibitors and analyzed by western blot as described previously (Nakamichi et al., 2005; Xue et al., 2010). IL-22RA1 and cleaved caspase-3 antibodies were purchased from Abcam and Cell Signaling, respectively. Supernatant from pancreas homogenate was analyzed using ELISA kit for mouse IL-22 (Biolegend).

pancreatic IL-22 = test: Pancreatic IL-22 production in mice (flow cytometry of pancreatic leukocytes, ELISA); type: in vivo, Balb/c mice; conditions: day 3, vs vehicle
Protocol: as §2
Mouse pancreata were isolated and frozen immediately in liquid nitrogen. Total tissue and primary pancreatic acinar cells, isolated as described below, were homogenized in RIPA buffer containing protein inhibitors and analyzed by western blot as described previously (Nakamichi et al., 2005; Xue et al., 2010). […] Supernatant from pancreas homogenate was analyzed using ELISA kit for mouse IL-22 (Biolegend). […]
For surface staining, cells were stained with the following antibodies (Biolegend): AF700 or FITC CD45.2, PE/Cy7-CD3, PE/Cy7-CD19, APC/Cy7-CD4, FITC-CD90, Percp/Cy5.5-CD11b, APC-Sca-1, PB-CD11c, APC/Cy7-NK1.1 and APC-NKp46. […] Flow cytometry data collection was performed on Fortessa LSRII (BD Biosciences) and analyzed using FlowJo software (Tree Star, Inc.).

STAT3 = STAT3 phosphorylation in tissues after systemic rIL-22 (western blot, immunofluorescence); type: in vivo, Balb/c mice; conditions: rIL-22 200 ng/mouse systemically; 1 h; compared to other tissues
Protocol: as §2
Mice were euthanized by CO2 inhalation. Pancreata and other tissues were rapidly removed. […] The severity of pancreatitis and lung injury were scored blindly as described previously (Habtezion et al. (2011), Nakamichi et al., 2005). Other pancreas pieces were frozen in Tissue-Tek OCT compound and sectioned for fluorescence staining Immunofluorescence staining for p-STAT3 (Cell Signaling) and DAPI (nuclei) was performed according to manufacturer's guidelines. […]
Mouse pancreata were isolated and frozen immediately in liquid nitrogen. Total tissue and primary pancreatic acinar cells, isolated as described below, were homogenized in RIPA buffer containing protein inhibitors and analyzed by western blot as described previously (Nakamichi et al., 2005; Xue et al., 2010). […]

pancreatic acinar cells = test: pSTAT3 induction in isolated primary pancreatic acinar cells (western blot); type: cell-based, Balb/c mice; conditions: 10 ng/ml for 0-30 min; 0-100 ng/ml for 15 min
Protocol: as §3
(§4) Mice were sacrificed and pancreata removed carefully by trimming fat and mesentery. Dispersed pancreatic acinar cells were isolated using a collagenase digestion method described previously (Menozzi et al. 1990). Isolated primary pancreatic acinar cells were treated in vitro with either rIL-22 or vehicle control (PBS) for up to 4 hours following isolation. Pancreatic leukocytes were prepared with minor modifications of the method developed by Hawkins (Hawkins et al., 1996). Briefly, 3-4 pancreata were pooled together and minced with scissors, then washed twice with buffer A (HBSS+10% FCS). The tissue was resuspended in buffer A containing 2 mg/ml collagenase type IV (Sigma-Aldrich) and incubated in a shaker at 37° C. for 15 min. […]

[2] = tested on: RegIII genes, SAA3, β-defensin2, IL-22RA1 in pancreas; test: Quantitative PCR of pancreas mRNA 24 h after rIL-22; type: in vivo, Balb/c mice; conditions: 200 ng/mouse i.p., vs PBS
Protocol: Pancreatic tissue was lysed with Trizol reagent (Invitrogen) for total RNA preparation according to manufacturer's instructions. Briefly, cDNA was generated using GoScript reverse transcription system (Promega). Quantitative PCR was performed with an ABI-7900 Sequence Detection System (Applied Biosystems) using designed specific TaqMan probes and primers as follows: RegIIIβ (Forward, 5′-[…]-3′; Reverse, 5′-[…]-3′; Probe, 5′-[…]-3′); RegIIIγ (Forward, 5′-[…]-3′; Reverse, 5′-TGGGTTCATAGCCCAGTGT-3′; Probe, 5′-[…]-3′); β-defensin2 (Forward, 5′-[…]-3′; Reverse, 5′-[…]-3′; Probe, 5′-[…]-3′); SAA3 (Forward, 5′-[…]-3′; Reverse, 5′-[…]-3′; Probe, 5′-[…]-3′); IL-22RA1 (Forward, 5′-[…]-3′; Reverse, 5′-[…]-3′; Probe, 5′-[…]-3′).

[3] = tested on: primary pancreatic acinar cells; test: Spontaneous apoptosis of primary pancreatic acinar cells in vitro (cleaved caspase-3 western blot); type: cell-based, mice; conditions: rIL-22 for 2 h or 4 h in vitro; vs PBS
Protocol: as §3, §4

[4] = tested on: caerulein-induced acute pancreatitis; test: Caerulein-induced acute pancreatitis in AhR non-responsive (AhR^d) mice; type: in vivo, AhR^d mice (C57BL/6 background); conditions: rIL-22 single dose 200 ng/mouse, vs vehicle control
Protocol: as §1
Mice were euthanized by CO2 inhalation. Pancreata and other tissues were rapidly removed. Pancreas and lung pieces were immediately fixed in 10% formalin and embedded in paraffin. […] The severity of pancreatitis and lung injury were scored blindly as described previously (Habtezion et al. (2011), Nakamichi et al., 2005). Other pancreas pieces were frozen in Tissue-Tek OCT compound and sectioned for fluorescence staining Immunofluorescence staining for p-STAT3 (Cell Signaling) and DAPI (nuclei) was performed according to manufacturer's guidelines. […]

[5] = 200 ng/mouse 24 h after CDE feeding, 60 h, vs PBS

Compound: Cc1ccccc1N=Nc1ccc(NC(=O)c2ccnn2C)c(C)c1 [CH-223191, 2-methyl-2H-pyrazole-3-carboxylic acid (2-methyl-4-o tolylazo-phenyl)-amide, reference compound]
- Mortality ([1]; pretreated before CDE feeding, by day 3, relative to control treated mice): increased mortality
- Severity of acute pancreatitis (serum lipase, H&E, histologic score) ([1]; pretreated daily for two days before CDE feeding, analyzed at day 2, vs vehicle): considerably more severe acute pancreatitis
- Frequency of IL-22-expressing leukocytes in the pancreas (pancreatic IL-22; 100 μg/mouse on two consecutive days, flow cytometry and ELISA): markedly decreased

Compound: C=CC1=C(C)/C(=C/C2=NC(=C\c3[nH]c(/C=C4\NC(=O)C(C)=C4C=C)c(C)c3CCC(=O)O)/C(CCC(=O)O)=C2C)NC1=O [biliverdin, reference compound]
- Protection against acute pancreatitis (serum lipase, histologic assessment) ([1]; single dose 24 h after CDE-diet feeding, sacrificed at 60 h, vs vehicle): protected against acute pancreatitis
- Pancreatic IL-22 (pancreatic IL-22; biliverdin 35 mg/kg on day 1 and 2, ELISA and flow cytometry): significant increase

Compound: rIL-22: recombinant IL-22 (Miltenyi Biotech), cytokine of the IL-10 family
- STAT3 activation (p-STAT3) in the pancreas (STAT3): Significant STAT3 activation
- pSTAT3 induction in pancreatic acinar cells (pancreatic acinar cells): induced by rIL-22 in pancreatic acinar cells in a time and dose dependent manner
- IL-22RA1 mRNA expression in pancreas [2]: no significant induction
- RegIIIβ (PAP1) mRNA expression in pancreas [2]: stimulated the expression
- RegIIIγ (PAP3) mRNA expression in pancreas [2]: stimulated the expression
- SAA3 mRNA expression in pancreas [2]: no significant induction
- β-defensin2 mRNA expression in pancreas [2]: no significant induction
- Blinded lung histology score ([1]; 200 ng/mouse 24 h after CDE feeding, 60 h, mean±SEM, P=0.028 vs control): 1.6±0.24
- Lung myeloperoxidase (MPO) levels [1, 5]: significantly reduced
- Morphologic evidence of lung injury [1, 5]: significantly reduced
- Pancreatitis severity, histologic examination and blinded scoring of pancreata ([1]; 200 ng/mouse 24 h after CDE feeding, 60 h, vs vehicle): less severe pancreatitis
- Serum lipase levels ([1]; 200 ng/mouse i.p. 24 h after CDE feeding, harvest at 60 h, vs PBS): significantly lower
- Pancreatic IL-22 level by ELISA after systemic administration ([1]; 60 h following CDE feeding): Effective reconstitution
- Mortality ([1]; rIL-22 24 h after CDE feeding, followed to 72 h, vs PBS): lower mortality
- Apoptosis in pancreas (TUNEL assay) ([1]; rIL-22 24 h after CDE feeding, pancreas at 60 h): significantly reduced apoptosis
- Spontaneous apoptosis of acinar cells (cleaved caspase-3) [3]: delayed spontaneous apoptosis
- Pancreatic injury (H&E) [4]: decrease
- Serum lipase levels [4]: decrease
